Data from patent US20220081470A1, “THIAZOLYL PEPTIDES FOR THE TREATMENT NONTUBERCULOUS MYCOBACTERIAL INFECTIONS” (priority 2019, published 2022).
Converted amounts (≈) assume the structure as drawn. Where two headings read alike, the source gives them in different places.

What was measured:
Mycobacterium abscessus [1] = assay: MIC by broth dilution (CLSI M24), resazurin readout; format: cell-based; conditions: Mycobacteroides abscessus; M.abscessess
Mycobacterium kansasii [2] = assay: Minimum Bactericidal Concentration (MBC); format: cell-based; conditions: M.kansasii
Mycobacterium fortuitum [3] = assay: MIC by broth dilution (CLSI M24), resazurin readout; format: cell-based; conditions: Mycolicibacterium fortuitum; M.fortuitum
M. avium = assay: In vitro drug combination study, checkerboard method; format: cell-based, Mycobacterium avium; conditions: for MIC: Mycobacterium avium, 144 h, drug alone, checkerboard, read-out: Individual MIC; for FIC index / Outcome: in combination with PM181108A
[4] = test system: M. gordonae in THP-1 macrophages; assay: Intracellular efficacy in THP-1 macrophages; format: cell-based, Mycobacterium gordonae
Experimental: (§1) To test drug efficacy against slow or non-replicating bacilli in the intracellular compartment, THP-1 cells were grown in RPMI medium supplemented with […] sodium pyruvate, 200 mM L-glutamine, 3.7 g of sodium bicarbonate (Sigma) per litre, and 10% foetal calf serum (Gibco-BRL Life Technologies) without any antibiotics. The macrophages were seeded in 96-well plates at a density of approximately 5×10^5 cells/flask, incubated overnight, and were induced by 50 nM phorbol 12-myristate 13-acetate (PMA) to achieve macrophage differentiated phenotypesat 37° C./48-72 hr/5% CO2 atmosphere. After 48 hr of activation, the THP-1 macrophages were infected with respective NTM strains at a multiplicity of infection (MOI) of 1:10/2 h at 37° C. with 5% CO2. The macrophage monolayers were washed twice with […] of phosphate-buffered saline (+Ca^2++Mg^2+) to remove the free bacteria. Sets of triplicate wells were lysed (0.05% SDS) at specific timepoints, and enumerated to estimate the numbers of intracellular NTM 2 h post-infection.
(§2) The residual intracellular viable mycobacteria were enumerated at 0, 3, 5, and 7 day on Middlebrook 7H11 agar plates. […] Inhibitory sigmoidal curves were generated by plotting the log10 cfu/ml against the Cbroth/MIC ratio and the AUC/MIC ratio.

[5] = test system: Mycobacterium intracellulare; assay: MIC by broth dilution (CLSI M24), resazurin readout; format: cell-based; conditions: M.intracellulare
[6] = test system: M. kansasii in THP-1 macrophages; assay: Intracellular efficacy in THP-1 macrophages; format: cell-based, Mycobacterium kansasii
Experimental: as §1, §2

Mycobacterium abscessus [7] = assay: Minimum Bactericidal Concentration (MBC); format: cell-based; conditions: Mycobacteroides abscessus; M.abscessess
Mycobacterium gordonae [8] = assay: Minimum Bactericidal Concentration (MBC); format: cell-based; conditions: M.gordonae
[9] = test system: M. avium in THP-1 macrophages; assay: Intracellular efficacy in THP-1 macrophages; format: cell-based, Mycobacterium avium
Experimental: as §1, §2

M. gordonae = assay: In vitro drug combination study, checkerboard method; format: cell-based, Mycobacterium gordonae; conditions: for MIC: Mycobacterium gordonae, 144 h, drug alone, checkerboard, read-out: Individual MIC; for FIC index / Outcome: in combination with PM181108A
[10] = test system: M. fortuitum in THP-1 macrophages; assay: Intracellular efficacy in THP-1 macrophages; format: cell-based, Mycobacterium fortuitum
Experimental: as §1, §2

[11] = test system: Mycobacterium intracellulare; assay: Minimum Bactericidal Concentration (MBC); format: cell-based; conditions: M.intracellulare
[12] = test system: Mycobacterium nonchromogenicum; assay: Minimum Bactericidal Concentration (MBC); format: cell-based; conditions: Mycolicibacter nonchromogenicus
Mycobacterium kansasii [13] = assay: MIC by broth dilution (CLSI M24), resazurin readout; format: cell-based; conditions: M.kansasii
Mycobacterium avium [14] = assay: Minimum Bactericidal Concentration (MBC); format: cell-based; conditions: M.avium
[15] = test system: M. abscessus in THP-1 macrophages; assay: Intracellular efficacy in THP-1 macrophages; format: cell-based, Mycobacterium abscessus; conditions: M.abscessess in THP-1 macrophages
Experimental: as §1, §2

[16] = test system: M. intracellulare in THP-1 macrophages; assay: Intracellular efficacy in THP-1 macrophages; format: cell-based, Mycobacterium intracellulare
Experimental: as §1, §2

Mycobacterium gordonae [17] = assay: MIC by broth dilution (CLSI M24), resazurin readout; format: cell-based; conditions: M.gordonae
Mycobacterium avium [18] = assay: as above; format: cell-based; conditions: M.avium
Mycobacterium fortuitum [19] = assay: Minimum Bactericidal Concentration (MBC); format: cell-based; conditions: Mycolicibacterium fortuitum; M.fortuitum
[20] = test system: M. nonchromogenicum in THP-1 macrophages; assay: Intracellular efficacy in THP-1 macrophages; format: cell-based, Mycobacterium nonchromogenicum
Experimental: as §1, §2

[21] = test system: Mycobacterium nonchromogenicum; assay: MIC by broth dilution (CLSI M24), resazurin readout; format: cell-based; conditions: Mycolicibacter nonchromogenicus
[22] = M.nonchromogenicum, read-out: MBC
[23] = M.nonchromogenicum, read-out: MIC

| SMILES | MIC (Mycobacterium abscessus [1]) [µg/mL] | MBC (Mycobacterium kansasii [2]) [µg/mL] | MIC (Mycobacterium fortuitum [3]) [µg/mL] | MIC (M. avium) [µg/mL] | Outcome (M. avium) | IC Emax (intracellular efficacy) [4] [log10 cfu/ml] | MIC [5] [µg/mL] | MBC (Mycobacterium abscessus [7]) [µg/mL] | MBC (Mycobacterium gordonae [8]) [µg/mL] | IC Emax (intracellular efficacy) [9] [log10 cfu/ml] | IC Emax (intracellular efficacy) [10] [log10 cfu/ml] | MBC [11] [µg/mL] | MIC (Mycobacterium kansasii [13]) [µg/mL] | MBC (Mycobacterium avium [14]) [µg/mL] | IC Emax (intracellular efficacy) [15] [log10 cfu/ml] | IC Emax (intracellular efficacy) [16] [log10 cfu/ml] | MIC (Mycobacterium gordonae [17]) [µg/mL] | MIC (Mycobacterium avium [18]) [µg/mL] | MBC (Mycobacterium fortuitum [19]) [µg/mL] | IC Emax (intracellular efficacy) [20] [log10 cfu/ml] | other results |
| --- | --- | --- | --- | --- | --- | --- | --- | --- | --- | --- | --- | --- | --- | --- | --- | --- | --- | --- | --- | --- | --- |
| CC[C@H]1OC(=O)[C@H](C)[C@@H](O[C@H]2C[C@@](C)(OC)[C@@H](O)[C@H](C)O2)[C@H](C)[C@@H](O[C@@H]2O[C@H](C)C[C@H](N(C)C)[C@H]2O)[C@](C)(OC)C[C@@H](C)C(=O)[C@H](C)[C@@H](O)[C@]1(C)O [Clarithromycin] | 2 (≈ 2.67 µM) | 2 (≈ 2.67 µM) | 32 (≈ 42.8 µM) | 1 | Synergy (≤0.5, synergism) | 1.26 | 0.13 (≈ 0.174 µM) | 32 (≈ 42.8 µM) | 1 (≈ 1.34 µM) | 1.00 | 0.35 | 0.5 (≈ 0.668 µM) | 0.5 (≈ 0.668 µM) | 2 (≈ 2.67 µM) | 0.70 | 1.78 | 0.5 (≈ 0.668 µM) | 0.5 (≈ 0.668 µM) | > 32 | 0.82 | FIC index (M. avium): 0.46; IC Emax (intracellular efficacy) [6]: 0.91 log10 cfu/ml; MIC (M. gordonae): 1 µg/mL; FIC index (M. gordonae): 0.46; Outcome (M. gordonae): Synergy (≤0.5, synergism); MBC [12]: 4 µg/mL (≈ 5.35 µM); MIC [21]: 0.25 µg/mL (≈ 0.334 µM) |
| COc1c(N2C[C@@H]3CCCN[C@@H]3C2)c(F)cc2c(=O)c(C(=O)O)cn(C3CC3)c12 [Moxifloxacin] | 2 (≈ 4.98 µM) | 8 (≈ 19.9 µM) | < 0.06 | – | – | 1.23 | 0.5 (≈ 1.25 µM) | 4 (≈ 9.96 µM) | 4 (≈ 9.96 µM) | 1.00 | 1.60 | 1 (≈ 2.49 µM) | 2 (≈ 4.98 µM) | 8 (≈ 19.9 µM) | 1.00 | 1.46 | 2 (≈ 4.98 µM) | 4 (≈ 9.96 µM) | 0.25 (≈ 0.623 µM) | 0.34 | IC Emax (intracellular efficacy) [6]: 1.93 log10 cfu/ml; MBC [12]: 16 µg/mL (≈ 39.9 µM); MIC [21]: 2 µg/mL (≈ 4.98 µM) |
| C=C(NC(=O)C(=C)NC(=O)c1csc(C2=N[C@@H]3c4csc(n4)[C@H]4NC(=O)c5csc(n5)[C@H]([C@](C)(O)[C@@H](C)O)NC(=O)[C@H]5CSC(=N5)/C(=C/C)NC(=O)[C@H]([C@@H](C)O)NC(=O)c5csc(n5)[C@]3(CC2)NC(=O)[C@H](C)NC(=O)C(=C)NC(=O)[C@H](C)NC(=O)[C@H]([C@@H](C)CC)N[C@@H]2C=Cc3c([C@H](C)O)cc(nc3[C@H]2O)C(=O)O[C@@H]4C)n1)C(N)=O [Thiostrepton] | 0.5 (≈ 0.3 µM) | 16 (≈ 9.61 µM) | 2 (≈ 1.2 µM) | – | – | 0.72 | 0.13 (≈ 0.0781 µM) | 32 (≈ 19.2 µM) | 2 (≈ 1.2 µM) | 1.19 | 0.00 | 1 (≈ 0.601 µM) | 1 (≈ 0.601 µM) | 2 (≈ 1.2 µM) | 0.00 | 0.67 | 0.5 (≈ 0.3 µM) | 1 (≈ 0.601 µM) | > 32 | 0.49 | IC Emax (intracellular efficacy) [6]: 1.56 log10 cfu/ml; MBC [12, 22]: 16 µg/mL (≈ 9.61 µM); MIC [21, 23]: 0.5 µg/mL (≈ 0.3 µM) |
| CO[C@H]1/C=C/O[C@@]2(C)Oc3c(C)c(O)c4c(O)c(c(/C=N/N5CCN(C)CC5)c(O)c4c3C2=O)NC(=O)/C(C)=C\C=C\[C@H](C)[C@H](O)[C@@H](C)[C@@H](O)[C@@H](C)[C@H](OC(C)=O)[C@@H]1C [Rifampicin] | 16 (≈ 19.4 µM) | 16 (≈ 19.4 µM) | 4 (≈ 4.86 µM) | 0.5 | Additive (>0.5-4.0, addition or indifference) | 1.36 | 0.06 (≈ 0.0729 µM) | 32 (≈ 38.9 µM) | 8 (≈ 9.72 µM) | 1.04 | 0.00 | 0.25 (≈ 0.304 µM) | 0.13 (≈ 0.158 µM) | 1 (≈ 1.22 µM) | 0.00 | 0.44 | 0.25 (≈ 0.304 µM) | 0.25 (≈ 0.304 µM) | > 32 | 0.82 | MIC (M. gordonae): 0.5 µg/mL; Outcome (M. gordonae): Synergy (≤0.5, synergism); MBC [12, 22]: 32 µg/mL (≈ 38.9 µM); MIC [21, 23]: 0.13 µg/mL (≈ 0.158 µM) |
| NCC[C@H](O)C(=O)N[C@@H]1C[C@H](N)[C@@H](O[C@H]2O[C@H](CN)[C@@H](O)[C@H](O)[C@H]2O)[C@H](O)[C@H]1O[C@H]1O[C@H](CO)[C@@H](O)[C@H](N)[C@H]1O [Amikacin] | 4 (≈ 6.83 µM) | 16 (≈ 27.3 µM) | 2 (≈ 3.42 µM) | 4 | Additive (>0.5-4.0, addition or indifference) | – | 1 (≈ 1.71 µM) | 16 (≈ 27.3 µM) | 8 (≈ 13.7 µM) | – | – | 2 (≈ 3.42 µM) | 4 (≈ 6.83 µM) | 8 (≈ 13.7 µM) | – | – | 2 (≈ 3.42 µM) | 2 (≈ 3.42 µM) | 2 (≈ 3.42 µM) | – | FIC index (M. avium): 0.80; MIC (M. gordonae): 4 µg/mL; FIC index (M. gordonae): 0.90; Outcome (M. gordonae): Additive (>0.5-4.0, addition or indifference); MBC [12]: 8 µg/mL (≈ 13.7 µM); MIC [21]: 2 µg/mL (≈ 3.42 µM) |
